# Reference: patent publication US20210267939A1, “COMPOSITIONS AND METHODS FOR TREATING NAFLD/NASH AND RELATED DISEASE PHENOTYPES” (priority 2018, published 2021)
# How the values were obtained:
# [1] = system: Zucker fatty rats; test: Tissue acylcarnitine profiling in treated Zucker fatty rats; format: in vivo; conditions: ZFR, BT2 20 mg/kg i.p. daily for one week, vs vehicle
# Method: Individually housed, male 12 week-old Zucker fatty rats (ZFR, Charles River Laboratories) maintained on a custom control low fat (LF) diet (A11072001, Research Diets) were used for the BDK inhibition and PPM1K overexpression studies. For the BDK inhibition study, ZFR were administered the small molecule BDK inhibitor 3,6-dichlorobenzo[b]thiophene-2-carboxylic acid (BT2, Sigma) daily at a dose of 20 mg/kg dissolved in 200 ul of sterile dimethylsulfoxide by i.p. injection for 7 days. The control group was administered an equal volume of vehicle each day. On day 6, following an overnight fast, ZFR were subjected to a 1 g/kg i.p. glucose tolerance test (GTT) precisely 1 hr after administration of BT2 (20 mg/kg i.p.) or vehicle. The glucose tolerance test was performed as described (White, et al., 2016). Following the GTT, rats were returned to their normal cages and provided free access to food and water. Indirect calorimetry was performed in a second cohort of BT2 treated rats on day 6 of BT2 administration. Here ad-libitum fed rats were injected with BT2 (20 mg/kg i.p.) or vehicle immediately prior to being placed in an eight-chamber Oxymax system (Columbus Instruments) for seven hours. During their time in the metabolic cages all rats had free access to food and water. […]
# Metabolite profiling: Amino acids were measured in plasma and liver samples, and acylcarnitines in liver samples. […]
# [2] = system: site-specific phosphorylation changes in liver samples; test: Phospho-proteomics of liver from treated Zucker fatty rats; format: in vivo; conditions: BT2 vs vehicle ZFR
# Method: Phosphoproteomics: Large-scale measurements of phosphorylation changes in response to BT2 and PPM1K were performed. Briefly, protein from livers of ZFR treated with BT2 or DMSO, or with Ad-CMV-PPM1K or Ad-CMV-GFP, were solubilized, digested with LysC and trypsin, labeled with TMT-6plex reagents, and mixed in batches of six to enable two direct comparisons: 1) BT2 vs. DMSO (n=3), 2) PPM1K vs. GFP (n=3). Phosphopeptides were enriched from the majority of each mixture using immobilized metal affinity chromatography (IMAC), and a small portion of the input material was retained for assessment of relative protein abundance. Both phosphopeptide and input fractions were subjected to nanoLC-MS/MS using a nano-Acquity UPLC system (Waters) coupled to a Q Exactive Plus Hybrid Quadrupole-Orbitrap mass spectrometer (Thermo Fischer Scientific). Raw LC-MS/MS data were processed in Proteome Discoverer v2.1 (PD2.1, Thermo Fisher Scientific) and subsequent statistical analysis was performed in Microsoft EXCEL. […] (PD2.2, Thermo Fisher Scientific). Phosphosite motif analysis and logo generation was performed in PhosphoSitePlus® by submitting pre-aligned 15 amino acid sequences for all modulated phosphopeptides from each study into the motif and logo analysis tools (Hornbeck et al., 2015).
# Tissue lysis and protein digestion for proteomics: Approximately 50 mg of pulverized liver tissue power from each rat (3 BT2- and 3 DMSO-treated animals; 3 PPM1K- and 3 GFP-overexpressing animals) was re-suspended in 400 μL of ice-cold 8M Urea Lysis Buffer (8 M urea in 50 mM Tris, pH 8.0, 40 mM NaCl, 2 mM MgCl2, 1 mM Na3VO4, 10 mM Na4P2O7, 50 mM NaF, supplemented with protease inhibitor (1× cOmplete mini EDTA-free) and phosphatase inhibitor (1× PhosStop) tablets). […] Protein concentration was determined by BCA, and equal amounts of protein (500 μg, adjusted to 2.5 mg/mL with Urea Lysis Buffer) from each sample was reduced with 5 mM DTT at 37° C. for 30 min, cooled to RT, alkylated with 15 mM iodoacetamide for 30 min in the dark and unreacted iodoacetamide quenched by the addition of DTT up to 15 mM. […]
compound,measurement,setting,value
"O=C(O)c1sc2cc(Cl)ccc2c1Cl [BT2, 3,6-dichlorobenzo[b]thiophene-2-carboxylic acid]",even chain acyl-carnitines in liver,[1],increases
same,even chain acyl-carnitines in skeletal muscle,[1],but not in skeletal muscle
same,"phosphorylation of serine 25, serine 29 and serine79 of acetyl-coA carboxylase 1 (ACC1), phospho-proteomics",[2],less phosphorylated
same,"phosphosite serine 454 of ATP-citrate lyase (ACL), phospho-proteomics",[2],significantly downregulated
same,"Log2 fold change in phosphorylation of serine 293 (serine 333) of BCKDH e1a, phospho-proteomics",[2]; p=0.054,−0.68
